Experimental data as given in ChEMBL document CHEMBL5137012, “The role of the maleimide ring system on the structure-activity relationship of showdomycin” (Eur J Med Chem, 2022).
Values belong to the compound of their own block, whether it stands above or below them. Calls of active or inactive are those of the source. The calls are words filed in the database; no cut-off is given here.

Key:
Homo sapiens [1] = species: Homo sapiens; assay: Substrate activity at human mitochondria RNA polymerase assessed as one nucleotide extension of transcription elongation complex by measuring incorporation of 4-ethylthioshowdomycin-5'-monophosphate into RNA at 100 uM incubated for 1 min by ATTO680 fluorophore based PAGE analysis
Homo sapiens [2] = species: Homo sapiens; assay: Substrate activity at human mitochondria RNA polymerase assessed as two nucleotide extension of transcription elongation complex by measuring incorporation of 4-ethylthioshowdomycin-5'-monophosphate into RNA at 100 uM incubated for 1 min in presence of GTP by ATTO680 fluorophore based PAGE analysis
Escherichia coli [3] = assay: Inhibition of Escherichia coli RNA polymerase-mediated processive transcription elongation at polythymidine sequence at 2 mM incubated for 5 mins by PAGE analysis
Saccharomyces cerevisiae [4] = assay: Inhibition of Saccharomyces cerevisiae RNA polymerase 2-mediated processive transcription elongation at polythymidine sequence at 2 mM incubated for 5 mins by PAGE analysis
Escherichia coli [5] = assay: Substrate activity at Escherichia coli RNA polymerase assessed as one nucleotide extension of transcription elongation complex by measuring incorporation of 4-ethylthioshowdomycin-5'-monophosphate into RNA at 100 uM incubated for 1 min by ATTO680 fluorophore based PAGE analysis
HEK-293T [6] = assay: Cytotoxicity against HEK293T cells at 30 uM incubated for 24 hrs by LDH assay; format: toxicity, cell-based; conditions: human
HEK-293T [7] = assay: Cytotoxicity against HEK293T cells assessed as reduction in viable cells at 125 uM incubated for 24 hrs by CCK-8 assay; format: toxicity, cell-based; conditions: human
Escherichia coli [8] = assay: Bactericidal activity against Escherichia coli K12 expressing modified luxABCDE genes assessed as reduction in luminescence at 0.625 mM incubated for 16 hrs by microplate reader analysis; format: functional, organism-based
Escherichia coli [9] = assay: Antibacterial activity against Escherichia coli K12 expressing modified luxABCDE genes assessed as reduction in bacterial growth by measuring reduction in optical density at 0.002 to 2.5 mM incubated for 16 hrs by microplate reader analysis; format: functional, organism-based; conditions: dose 0.002-2.5 mM
HEK-293T [10] = assay: Cytotoxicity against HEK293T cells assessed as morphological changes at 30 uM; format: toxicity, cell-based; conditions: human
Escherichia coli [11] = assay: Antibacterial activity against Escherichia coli K12 expressing modified luxABCDE genes assessed as reduction in bacterial growth by measuring reduction in bioluminescence at 0.002 to 2.5 mM incubated for 16 hrs by microplate reader analysis; format: functional, organism-based; conditions: dose 0.002-2.5 mM
Escherichia coli [12] = assay: Substrate activity at Escherichia coli RNA polymerase assessed as extension of transcription elongation complex by measuring incorporation into RNA in place of UTP at 100 uM incubated for 1 min in presence of GTP by PAGE analysis
HEK-293T [13] = assay: Cytotoxicity against HEK293T cells at 125 uM incubated for 24 hrs by LDH assay; format: toxicity, cell-based; conditions: human
Escherichia coli [14] = assay: Antibacterial activity against Escherichia coli K12 expressing modified luxABCDE genes assessed as reduction in bacterial growth by measuring reduction in optical density at 0.002 to 2.5 mM incubated for 16 hrs in presence of uridine at 0.002 to 12.5 mM by microplate reader analysis; format: functional, organism-based; conditions: dose 0.002-2.5 mM
HEK-293T [15] = assay: Cytotoxicity against HEK293T cells assessed as morphological changes at 125 uM; format: toxicity, cell-based; conditions: human
Escherichia coli [16] = assay: Antibacterial activity against Escherichia coli K12 expressing modified luxABCDE genes assessed as reduction in bacterial growth by measuring reduction in bioluminescence at 0.002 to 2.5 mM incubated for 16 hrs in presence of uridine at 0.002 to 12.5 mM by microplate reader analysis; format: functional, organism-based; conditions: dose 0.002-2.5 mM
Escherichia coli [17] = assay: Antibacterial activity against Escherichia coli K12 expressing modified luxABCDE genes assessed as reduction in bacterial growth by measuring reduction in bioluminescence at low concentrations measured after 250 mins by microplate reader analysis; format: functional, organism-based
HEK-293T [18] = assay: Cytotoxicity against HEK293T cells assessed as reduction in viable cells at 500 uM incubated for 24 hrs by CCK-8 assay; format: toxicity, cell-based; conditions: human
Escherichia coli [19] = assay: Bactericidal activity against Escherichia coli K12 expressing modified luxABCDE genes assessed as reduction in luminescence at 2.5 mM incubated for 16 hrs by microplate reader analysis; format: functional, organism-based
Escherichia coli [20] = assay: Antibacterial activity against Escherichia coli K12 expressing modified luxABCDE genes assessed as reduction in bacterial growth by measuring reduction in optical density at 40 uM incubated for 16 hrs by microplate reader analysis; format: functional, organism-based
Escherichia coli [21] = assay: Antibacterial activity against Escherichia coli K12 expressing modified luxABCDE genes assessed as reduction in bacterial growth by measuring reduction in bioluminescence at 40 uM incubated for 16 hrs by microplate reader analysis; format: functional, organism-based
Saccharomyces cerevisiae [22] = assay: Substrate activity at Saccharomyces cerevisiae RNA polymerase 2 assessed as extension of transcription elongation complex by measuring incorporation into RNA in place of UTP at 100 uM incubated for 1 min in presence of GTP by PAGE analysis
Homo sapiens [23] = species: Homo sapiens; assay: Substrate activity at human mitochondria RNA polymerase assessed as extension of transcription elongation complex by measuring incorporation into RNA in place of UTP at 100 uM incubated for 1 min in presence of GTP by PAGE analysis
Escherichia coli [24] = assay: Antibacterial activity against Escherichia coli K12 expressing modified luxABCDE genes assessed as reduction in bacterial growth by measuring reduction in bioluminescence incubated for 16 hrs by microplate reader analysis; format: functional, organism-based; conditions: DDE = dose-dependent effect
Escherichia coli [25] = assay: Antibacterial activity against Escherichia coli K12 expressing modified luxABCDE genes assessed as reduction in bacterial growth by measuring reduction in optical density incubated for 16 hrs by microplate reader analysis; format: functional, organism-based; conditions: DDE = dose-dependent effect

- Activity (Homo sapiens [1]): Active
- Activity (Homo sapiens [2]): Active
- inhibition (Escherichia coli [3]): Active
- inhibition (Saccharomyces cerevisiae [4]): Active
- Activity (Escherichia coli [5]): Active
Compound: CCSC1=C([C@@H]2O[C@H](COP(=O)(O)OP(=O)(O)OP(=O)(O)O)[C@@H](O)[C@H]2O)C(=O)NC1=O

Compound: O=C1C=C([C@@H]2O[C@H](CO)[C@@H](O)[C@H]2O)C(=O)N1
- Activity (HEK-293T [6]): Toxic
- Activity (HEK-293T [7]): Toxic
- Activity (Escherichia coli [8]): Active
- Activity (Escherichia coli [9]): Active
- Activity (HEK-293T [10]): Toxic
- Activity (Escherichia coli [11]): Active

- Activity (Escherichia coli [12]): Active
Compound: C[C@H](SC1=C([C@@H]2O[C@H](COP(=O)(O)OP(=O)(O)OP(=O)(O)O)[C@@H](O)[C@H]2O)C(=O)NC1=O)C(=O)O

Compound: CCSC1=C([C@@H]2O[C@H](CO)[C@@H](O)[C@H]2O)C(=O)NC1=O
- Activity (HEK-293T [13]): Toxic
- Activity (Escherichia coli [14]): Active
- Activity (Escherichia coli [9]): Active
- Activity (HEK-293T [15]): Toxic
- Activity (Escherichia coli [11]): Active
- Activity (Escherichia coli [16]): Active
- Activity (Escherichia coli [17]): Active
- Activity (HEK-293T [18]): Toxic
- Activity (Escherichia coli [19]): Active

- Activity (Escherichia coli [12]): Active
Compound: C[C@@H](SC1=C([C@@H]2O[C@H](COP(=O)(O)OP(=O)(O)OP(=O)(O)O)[C@@H](O)[C@H]2O)C(=O)NC1=O)C(=O)O

Compound: CN[C@@H]1[C@@H](O[C@H]2O[C@H](CO)[C@@H](N)[C@H](O)[C@H]2O)O[C@H]2C[C@@H](N)[C@@H](O[C@H]3[C@H](O)[C@@H](O)[C@H](N)C[C@@H]3N)O[C@@H]2[C@@H]1O
- Activity (Escherichia coli [20]): Active
- Activity (Escherichia coli [21]): Active

Compound: NC[C@H]1O[C@H](O[C@H]2[C@H](O)[C@@H](O[C@H]3O[C@H](CO)[C@@H](O)[C@H](N)[C@H]3O)[C@H](N)C[C@@H]2N)[C@H](O)[C@@H](O)[C@@H]1O
- Activity (Escherichia coli [20]): Active
- Activity (Escherichia coli [21]): Active

- Activity (Saccharomyces cerevisiae [22]): Active
- inhibition (Escherichia coli [3]): Active
- Activity (Escherichia coli [12]): Active
- inhibition (Saccharomyces cerevisiae [4]): Active
- Activity (Homo sapiens [23]): Active
Compound: CSC1=C([C@@H]2O[C@H](COP(=O)(O)OP(=O)(O)OP(=O)(O)O)[C@@H](O)[C@H]2O)C(=O)NC1=O

- Activity (Saccharomyces cerevisiae [22]): Active
- inhibition (Escherichia coli [3]): Active
- Activity (Escherichia coli [12]): Active
- inhibition (Saccharomyces cerevisiae [4]): Active
- Activity (Homo sapiens [23]): Active
Compound: C[Se]C1=C([C@@H]2O[C@H](COP(=O)(O)OP(=O)(O)OP(=O)(O)O)[C@@H](O)[C@H]2O)C(=O)NC1=O

Compound: N=C(N)NCC(=O)N(O)C(CCC(N)=O)C(=O)NC[C@H]1O[C@@H](c2c[nH]c(=O)[nH]c2=O)[C@H](O)[C@@H]1O (stereo partly drawn)
- Activity (Escherichia coli [24]): Dde
- Activity (Escherichia coli [25]): Dde

- Activity (Saccharomyces cerevisiae [22]): Active
- inhibition (Escherichia coli [3]): Active
- Activity (Escherichia coli [12]): Active
- inhibition (Saccharomyces cerevisiae [4]): Active
- Activity (Homo sapiens [23]): Active
Compound: O=C1NC(=O)C([C@@H]2O[C@H](COP(=O)(O)OP(=O)(O)OP(=O)(O)O)[C@@H](O)[C@H]2O)=C1Br
